Reference: ChEMBL document CHEMBL1151048, “Synthesis and antimicrobial activity of 5-thioabbeymycin: limitations of the iminothioether approach to carbinolamine-containing pyrrolobenzodiazepines” (1993)

Assays:
Type in all cases: functional
Staphylococcus aureus [1] = experiment: Minimum bactericidal concentration against Staphylococcus aureus; value ranges from 2-8 ug cm-3
Staphylococcus aureus [2] = experiment: Minimum inhibitory concentration against Staphylococcus aureus; value ranges from 2-4 ug cm-3
Pseudomonas aeruginosa [3] = experiment: Minimum inhibitory concentration against Pseudomonas aeruginosa; value ranges from 2-4 ug cm-3
Pseudomonas aeruginosa [4] = experiment: Minimum bactericidal concentration against Pseudomonas aeruginosa; value ranges from 2-4 ug cm-3

O[C@H]1C[C@H]2C=Nc3ccccc3C(=S)N2C1
2 ug cm**-3: MBC (Staphylococcus aureus [1]) | MIC (Staphylococcus aureus [2]) | MIC (Pseudomonas aeruginosa [3]) | MBC (Pseudomonas aeruginosa [4])
